From patent US20080038374A1, “New Use” (Lipopeptide AB, priority 2004, published 2008)

Tests used:
hCAP18 = hCAP18 mRNA in acute surgical wounds of healthy volunteers, Real-Time RT-PCR; type: in vivo, human; conditions: topical, 24 h, nine probands, relative to vaseline control wound
Description: To assess whether treatment with a vitamin D compound can further enhance the up-regulation of hCAP18 during acute skin injury, fresh surgical wounds in healthy volunteers (n=9) were treated with vitamin D ointment.
(§1) The investigation was non-randomized, single blinded including four females and five males, age 22-30 years. Only fair skinned, young and healthy individuals were included and the tissue was obtained from the same body location in a non-sun exposed area. Each individual obtained 3 wounds in the left and the right inguinal region, respectively. The topical treatment with vitamin D was applied on one side and the control treatment on the contra lateral side. To each of the wounds on one side, 25 μg calcipotriol in 0.5 g ointment (Daivonex, LEO Pharma, Malmo, Sweden) was applied to a total test area of 2×2.25 cm, including one wound with surrounding intact skin. The control wounds in the opposite inguinal region were treated with vaseline (ACO, Stockholm, Sweden). All wounds were covered with inert dressing (Melolin, Smith and Nephew, Hull, U K; Mefix, Molnlycke A B, Gothenburg, Sweden; Tegaderm, 3M Health Care, St. Paul, USA). After 12 hours the dressing was changed and the treatment was repeated. […]
Expression of hCAP18 mRNA was quantified by Real-Time PCR, as described in Example 1. […]

hCAP18/LL-37 = experiment: hCAP18 and LL-37 protein in acute wounds, Western blot; type: in vivo, human
Source text: as §1, with “repeated. In the first four individuals investigated the bandage was removed at 24 hours and the wounds were excised with a 6 mm biopsy punch and snap frozen.” for “repeated.”
Protein was calculated from frozen biopsies from patients (n=5) cut in 50 μm sections and homogenized. […] Protein concentrations were measured by Protein Assay Kit (Bio-Rad Laboratories, Hercules, USA) based on the Bradford method (Bradford 1976). […]

C=C1/C(=C\C=C2/CCC[C@]3(C)[C@@H]([C@H](C)/C=C/[C@@H](O)C4CC4)CC[C@@H]23)C[C@@H](O)C[C@@H]1O [calcipotriol]
up-regulation of hCAP18 mRNA in acute wounds (hCAP18): enhances the up-regulation of hCAP18 mRNA | immunoreactive bands of the processed peptide LL-37 versus control wounds (hCAP18/LL-37): in all three individuals, stronger immunoreactive bands | immunoreactive bands of the 18 kDa hCAP18 holoprotein versus control wounds (hCAP18/LL-37; 24 and 48 hours, five individuals): three of the five individuals investigated demonstrated stronger immunoreactive bands
